From ChEMBL document CHEMBL1201862, “PubChem BioAssay data set” (2004)
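Compound exposure: 48 hours, 5 concentrations, 96-well plates. GI50: concentration for 50% inhibition of growth.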 Activity calls are given as the source filed them. Rule as the data show it: active = GI50 up to about 1.1 µM and inactive = higher.

Assays:
Assay in all cases: inhibition of tumour cell growth, NCI panel, 48 h
[1] = system: HL-60
[2] = system: NCI-H226
[3] = system: OVCAR-8
[4] = system: MDA-MB-435
[5] = system: M14
[6] = system: SW-620
[7] = system: RXF 393
[8] = system: HT-29
[9] = system: HCT-116
[10] = system: COLO 205
[11] = system: SK-MEL-5
[12] = system: UO-31
[13] = system: UACC-62
[14] = system: SNB-19
[15] = system: A549
[16] = system: CCRF-CEM
[17] = system: HCT-15
[18] = system: IGROV-1
[19] = system: TK-10
[20] = system: T47D
[21] = system: SK-MEL-2
[22] = system: EKVX
[23] = system: CAKI-1
[24] = system: SF-295
[25] = system: UACC-257
[26] = system: NCI-H522
[27] = system: DU-145
[28] = system: NCI-H23
[29] = system: HOP-92
[30] = system: SK-OV-3
[31] = system: OVCAR-3
[32] = system: KM12
[33] = system: LOX IMVI
[34] = system: SNB-75
[35] = system: MCF7
[36] = system: SF-539
[37] = system: PC-3
[38] = system: NCI/ADR-RES
[39] = system: Hs-578T
[40] = system: RPMI-8226
[41] = system: MOLT-4
[42] = system: MDA-MB-231
[43] = system: MDA-N
[44] = system: BT-549
[45] = system: NCI-H460
[46] = system: ACHN
[47] = system: HOP-62
[48] = system: SR
[49] = system: SN12C
[50] = system: U-251
[51] = system: 786-0
[52] = system: SK-MEL-28
[53] = system: HCC 2998
[54] = system: K562
[55] = system: SF-268
[56] = system: OVCAR-4
[57] = system: OVCAR-5
[58] = system: Malme-3M

COc1ccc(/N=c2/oc3ccccc3cc2C(N)=O)cc1
GI50 [1]: > 100 µM (inactive)
GI50 [2]: 65.9 µM (inactive)
GI50 [3]: 27.4 µM (inactive)
GI50 [4]: 92.5 µM (inactive)
GI50 [5]: 55.2 µM (inactive)
GI50 [6]: > 100 µM (inactive)
GI50 [7]: 40.5 µM (inactive)
GI50 [8]: > 100 µM (inactive)
GI50 [9]: 26 µM (inactive)
GI50 [10]: > 100 µM (inactive)
GI50 [11]: > 100 µM (inactive)
GI50 [12]: 2.33 µM (inactive)
GI50 [13]: 34.8 µM (inactive)
GI50 [14]: 1.91 µM (inactive)
GI50 [15]: 42 µM (inactive)
GI50 [16]: > 100 µM (inactive)
GI50 [17]: > 100 µM
GI50 [18]: 24.5 µM (inactive)
GI50 [19]: 22.5 µM (inactive)
GI50 [20]: > 100 µM (inactive)
GI50 [21]: 55.2 µM (inactive)
GI50 [22]: > 100 µM (inactive)
GI50 [23]: 13.6 µM (inactive)
GI50 [24]: 26.3 µM (inactive)
GI50 [25]: > 100 µM (inactive)
GI50 [26]: 13.4 µM (inactive)
GI50 [27]: > 100 µM (inactive)
GI50 [28]: 29.8 µM (inactive)
GI50 [29]: 27.8 µM (inactive)
GI50 [30]: 20 µM (inactive)
GI50 [31]: > 100 µM (inactive)
GI50 [32]: 43.3 µM (inactive)
GI50 [33]: 33.7 µM (inactive)
GI50 [34]: 36.6 µM (inactive)
GI50 [35]: 22.5 µM (inactive)
GI50 [36]: 23.1 µM (inactive)
GI50 [37]: 80 µM (inactive)
GI50 [38]: 39 µM (inactive)
GI50 [39]: 18.7 µM (inactive)
GI50 [40]: > 100 µM (inactive)
GI50 [41]: > 100 µM (inactive)
GI50 [42]: 30.5 µM (inactive)
GI50 [43]: > 100 µM (inactive)
GI50 [44]: 32.3 µM (inactive)
GI50 [45]: > 100 µM (inactive)
GI50 [46]: 18.4 µM (inactive)
GI50 [47]: 17.2 µM (inactive)
GI50 [48]: > 100 µM (inactive)
GI50 [49]: > 100 µM (inactive)
GI50 [50]: 33.3 µM (inactive)
GI50 [51]: 23.7 µM (inactive)
GI50 [52]: > 100 µM (inactive)
GI50 [53]: > 100 µM (inactive)
GI50 [54]: > 100 µM (inactive)
GI50 [55]: 17.9 µM (inactive)

O=C1CCc2ccc3c(c21)CC1(Cc2ccccc2C1)C3
GI50 [1]: 2.11 µM (inactive)
GI50 [2]: 19.1 µM (inactive)
GI50 [3]: 7.62 µM (inactive)
GI50 [4]: 5.98 µM (inactive)
GI50 [5]: 4.73 µM (inactive)
GI50 [6]: 4.47 µM (inactive)
GI50 [8]: 3.71 µM (inactive)
GI50 [9]: 3.98 µM (inactive)
GI50 [10]: 16.2 µM (inactive)
GI50 [56]: 10.5 µM (inactive)
GI50 [11]: 3.38 µM (inactive)
GI50 [12]: 3.45 µM (inactive)
GI50 [13]: 7.1 µM (inactive)
GI50 [14]: 23.1 µM (inactive)
GI50 [15]: 7.78 µM (inactive)
GI50 [16]: 10.6 µM (inactive)
GI50 [17]: 4.67 µM
GI50 [18]: 13.3 µM (inactive)
GI50 [19]: 11.1 µM (inactive)
GI50 [20]: 8.55 µM (inactive)
GI50 [57]: 11.3 µM (inactive)
GI50 [21]: 14.2 µM (inactive)
GI50 [23]: 5.24 µM (inactive)
GI50 [24]: 3.72 µM (inactive)
GI50 [25]: 5.48 µM (inactive)
GI50 [26]: 10.2 µM (inactive)
GI50 [27]: 13 µM (inactive)
GI50 [28]: 11.6 µM (inactive)
GI50 [29]: 5.96 µM (inactive)
GI50 [30]: 41.4 µM (inactive)
GI50 [31]: 4.01 µM (inactive)
GI50 [32]: 7.52 µM (inactive)
GI50 [33]: 2.59 µM (inactive)
GI50 [34]: 14.4 µM (inactive)
GI50 [35]: 19.2 µM (inactive)
GI50 [36]: 5.45 µM (inactive)
GI50 [37]: 8.73 µM (inactive)
GI50 [38]: 5.5 µM (inactive)
GI50 [39]: 25.8 µM (inactive)
GI50 [40]: 6.55 µM (inactive)
GI50 [41]: 3.8 µM (inactive)
GI50 [42]: 4.45 µM (inactive)
GI50 [43]: 2.69 µM (inactive)
GI50 [44]: 10 µM (inactive)
GI50 [45]: 2.57 µM (inactive)
GI50 [58]: 10.5 µM (inactive)
GI50 [46]: 5.27 µM (inactive)
GI50 [47]: 6.37 µM (inactive)
GI50 [48]: 3.58 µM (inactive)
GI50 [49]: 4.8 µM (inactive)
GI50 [50]: 8.05 µM (inactive)
GI50 [51]: 6.58 µM (inactive)
GI50 [52]: 4.37 µM (inactive)
GI50 [53]: 14.4 µM (inactive)
GI50 [55]: 12.7 µM (inactive)

CCOC(=O)C1C(=O)C=C(c2cc(C)ccc2O)CC1c1cccc(Cl)c1 (stereo unspecified)
GI50 [1]: 25.8 µM (inactive)
GI50 [2]: 24.5 µM (inactive)
GI50 [3]: 29.3 µM (inactive)
GI50 [4]: 2.78 µM (inactive)
GI50 [5]: 30.1 µM (inactive)
GI50 [6]: 29 µM (inactive)
GI50 [7]: 19.3 µM (inactive)
GI50 [8]: 32 µM (inactive)
GI50 [9]: 34 µM (inactive)
GI50 [10]: 18.5 µM (inactive)
GI50 [56]: 17.5 µM (inactive)
GI50 [11]: 19.2 µM (inactive)
GI50 [12]: 19.6 µM (inactive)
GI50 [13]: 13.9 µM (inactive)
GI50 [14]: 19.6 µM (inactive)
GI50 [15]: 19 µM (inactive)
GI50 [16]: 19.8 µM (inactive)
GI50 [17]: 3.13 µM
GI50 [18]: 13.6 µM (inactive)
GI50 [19]: 20.3 µM (inactive)
GI50 [20]: 36.1 µM (inactive)
GI50 [57]: 43.7 µM (inactive)
GI50 [21]: 16.7 µM (inactive)
GI50 [22]: 30.1 µM (inactive)
GI50 [23]: 30.7 µM (inactive)
GI50 [24]: 23.9 µM (inactive)
GI50 [25]: 2.12 µM (inactive)
GI50 [26]: 12.4 µM (inactive)
GI50 [27]: 50.1 µM (inactive)
GI50 [28]: 26.4 µM (inactive)
GI50 [29]: 13.5 µM (inactive)
GI50 [30]: 20 µM (inactive)
GI50 [31]: 32 µM (inactive)
GI50 [32]: 16.3 µM (inactive)
GI50 [33]: 24.2 µM (inactive)
GI50 [35]: 19.5 µM (inactive)
GI50 [36]: 19.6 µM (inactive)
GI50 [37]: 11.5 µM (inactive)
GI50 [38]: 17.5 µM (inactive)
GI50 [39]: 21 µM (inactive)
GI50 [40]: 18.7 µM (inactive)
GI50 [41]: 22.6 µM (inactive)
GI50 [42]: 23.9 µM (inactive)
GI50 [43]: 6.04 µM (inactive)
GI50 [44]: 44.6 µM (inactive)
GI50 [45]: 26.1 µM (inactive)
GI50 [58]: 17.3 µM (inactive)
GI50 [46]: 19.7 µM (inactive)
GI50 [47]: 40.2 µM (inactive)
GI50 [48]: 5.21 µM (inactive)
GI50 [49]: 27.7 µM (inactive)
GI50 [50]: 18.5 µM (inactive)
GI50 [51]: 36.6 µM (inactive)
GI50 [53]: 24.5 µM (inactive)
GI50 [54]: 12.9 µM (inactive)
GI50 [55]: 22.3 µM (inactive)
